Where “and” joins values, the source holds several entries; their conditions need not be identical. Identical values can stand only once. Like-named read-outs stand apart in the source and are kept apart here.
Tests used:
[1] = test system: caspase-3; conditions: for sevoflurane-induced caspase-3 activation, percentage of control (100%): sevoflurane alone 356%; for caspase-3 activation, fold of control (1-fold): 3% sevoflurane for 6 h, FIG. 4B
Source text: (§1) The animal protocol was approved by the Standing Committee on Animals at Massachusetts General Hospital (Boston, Mass.). Naive mice (C57BL/6J mice [The JacksonLaboratory, Bar Harbor, Me.]) and Alzheimer's disease (AD) transgenic mice (B6.Cg-Tg[APPswe, PSEN1dE9]85 Dbo/J, [The Jackson Laboratory]) were distinguished by genotyping. All animals (3-12 mice per experiment) were 6 days old at the time of anesthesia and were randomized by weight and gender into experimental groups that received either 3 or 2.1% sevoflurane plus 60% oxygen for either 6 or 2 h, and control groups received 60% oxygen for 6 or 2 h at identical flow rates in identical anesthetizing chambers. […] Anesthetic and oxygen concentrations were measured continuously (Datex, Tewksbury, Mass.), and the temperature of the anesthetizing chamber was controlled to maintain the rectal temperature of the mice at 37°±0.5° C. In the interaction studies, the inositol trisphosphate receptor (IP3R) antagonist 2-aminoethoxydiphenyl borate (2-APB) (5 and 10 mg/kg) was administered to the mice via intraperitoneal injection 10 min before the anesthetic was administered. 2-APB was first dissolved in dimethyl sulfoxide to 20 μg/μl and then diluted with saline to 0.25 μg/μl (1:80 dilution) and to 0.5 μg/μl (1:40 dilution).
(§2) Immediately after sevoflurane anesthesia, the mouse was decapitated, and the brain cortex was harvested. The brain tissues were homogenized in an immunoprecipitation buffer (10 mM Tris-HCl, pH 7.4, 150 mM NaCl, 2 mM ethylenediaminetetraacetic acid, and 0.5% Nonidet P-40) plus protease inhibitors ([1 μg/ml aprotinin, 1 μg/ml leupeptin, and 1 μg/ml pepstatin A]; [Roche, Indianapolis, Ind.]). The lysates were collected, centrifuged at 13,000 rpm for 15 min, and quantified for total proteins by using the bicinchoninic acid protein assay kit (Pierce, Iselin, N.J.).
(§3) The harvested brain tissues were subjected to Western blots as described by Xie et al. (16). Briefly, 60 μg of each lysate was separated on sodium dodecyl sulfate polyacrylamide gel electrophoresis gels and transferred to polyvinylidene difluoride blots (Bio-Rad, Hercules, Calif.) using a semidry electrotransfer system (Amersham Biosciences, San Francisco, Calif.). The blot was incubated overnight at 4° C. with primary antibodies, followed by washes and incubation with appropriate secondary antibodies, and visualized with a chemoluminescence system. A caspase-3 antibody (1:1,000 dilution; Cell Signaling Technology, Danvers, Mass.) was used to recognize the caspase-3 fragment (17-20 kDa) resulting from cleavage at aspartate position 175 and fulllength (FL) caspase-3 (35-40 kDa). TNF-α levels were recognized by antibody ab6671 (26 kDa; 1:1,000; Abcam, Cambridge, Mass.). The antibody to nontargeted protein β-actin was used to control for loading differences in total protein amounts. The figures showing blots with only the caspase-3 fragment are the same Western blots with extended exposure time during the development of the film. The signal of the Western blot band was detected using Molecular Imager VersaDoc MP 5000 System (Bio-Rad). The intensity of signals was analyzed using a Bio-Rad image program (Quantity One) and a National Institutes of Health Image Version 1.37 (National Institutes of Health, Bethesda, Md.). Western blots were quantified using two steps. First, levels of β-actin was used to normalize (e.g., determining the ratio of FL caspase-3 amount to β-actin amount) the levels of proteins to control for loading differences in total protein amounts.

[2] = test system: Aβ; conditions: 2-APB (10 mg/kg, FIG. 7D) before 3% sevoflurane for 6 h; neonatal naïve mice; sevoflurane alone 304%; P=0.042
Source text: as §1
(§4) Data were expressed as mean±SD.

[3] = test system: Aβ40 and Aβ42 oligomerization
Experimental: (§5) To this end, H4 human neuroglioma cells stably transfected to express human full-length wild-type APP (H4-APP cells) in cell culture media with […] Aβ40, Aβ42 or Aβ40 plus Aβ42, were treated with an clinically relevant concentration of propofol (e.g., 100 μM) for one hour, and then with 2% isoflurane (plus 21% O2 and 5% CO2) for six hours. Wild-type H4 human neuroglioma cells (H4 naïve cells) and primary neurons from naïve (C57BL/6) mice were also used in the study for comparison. To obtain primary neurons, naïve (C57BL/6) mice with gestation stage of day 15 were euthanized with CO2. The primary neurons were harvested from the embyros. The harvested neurons were cultured for 7 to 10 days prior to treatment.
(§6) Anesthesia machine was used for the delivery of 2% isoflurane to the cells or neurons plated in a six well plate in a sealed plastic box located in a 37° C. incubator and Datex infrared gas analyzer was used for the monitoring (FIGS. 9A to 9C). The cells and the cell culture media were harvested at the end of the treatment. Caspase-3 activation and Aβ oligomerization were measured with quantitative Western blotting. Chemiluminescence signal from the western blot membranes was captured using a VersaDoc Imaging System and images were analyzed using Quantity One software (BioRad Hercules, Calif.).
In addition to the propofol effects on caspase-3 activation, its effects on Aβ oligomerization were assessed. H4-APP cell culture media were exposed to 2% isoflurane with and without 100 μM propofol for six hours. Antibody mAb 6E10 (1:3,000, Sigma) was used to detect Aβ40 and Aβ42 oligomerization.

[4] = test system: primary neurons from naïve (C57BL/6) mice; conditions: propofol before 2% isoflurane, gestation day 15, FIG. 12
Experimental: as §5, §6
(§7) Apoptosis is a programmed cell death requiring cysteine proteases called caspases, and caspase-3 activation is one of the final steps of apoptosis. Thus, a caspase-3 antibody (Cell Signaling, Danvers, Mass.) was used to recognize full-length (35 kDa), and the large fragment of cleaved caspase-3 (17-20 kDa).

[5] = test system: H4 naïve cells; conditions: propofol before 2% isoflurane, FIG. 11
Experimental: as §5, §6, §7

[6] = test system: H4-APP cells
Experimental: as §5, §6, §7

[7] = test system: amyloid precursor protein (APP); conditions: mouse, in vivo
Source text: as §1, §2, §3

[8] = test system: TUNEL-positive cells (apoptosis) in the brain tissues; assay: TUNEL staining of brain sections of neonatal mice; type: in vivo; conditions: 3% sevoflurane plus 60% oxygen for 6 h, FIG. 5B
Experimental: Terminal Deoxynucleotidyl Transferase dUTP Nick End Labeling Staining Assay. […] The mouse brain tissues were removed and exposed to immersion fixation for 24 h at 4° C. in 4% paraformaldehyde, and then 5-μm paraffin-embedded sections were made from the brain tissues. TMRred kit (Roche, Palo Alto, Calif.) was used for terminal deoxynucleotidyl transferase dUTP nick end labeling (TUNEL) staining. Briefly, the brain sections were incubated in a permeabilization solution and then incubated with a TUNEL reaction mixture. Finally, the sections were incubated with 10 μg/ml Hoechst 33342 in a humidified dark chamber. The sections from the same brain areas between control group mice and the sevoflurane-treated mice were then analyzed in a mounting medium under a fluorescence microscope. The TUNEL-positive cells and total cells in five areas of the brain section from each of the mice in the experiments were counted blind-fold under a 20× objective microscope lens. For the double immunocytochemistry staining to identify the cell type of the TUNEL-positive cells, the mouse brain tissues were quickly removed after sevoflurane anesthesia, put into a container with dry ice and ethanol, and then kept in a −80° C. freezer. Five-micrometer frozen sections were cut using a cryostat. […] Finally, the sections were mounted and immediately viewed using a fluorescence microscope.
as §4

[9] = Mortality of neonatal mice after sevoflurane anesthesia; type: in vivo; conditions: 6-day-old mice
Experimental: Naive mice (C57BL/6J mice [The JacksonLaboratory, Bar Harbor, Me.]) and Alzheimer's disease (AD) transgenic mice (B6.Cg-Tg[APPswe, PSEN1dE9]85 Dbo/J, [The Jackson Laboratory]) were distinguished by genotyping. All animals (3-12 mice per experiment) were 6 days old at the time of anesthesia and were randomized by weight and gender into experimental groups that received either 3 or 2.1% sevoflurane plus 60% oxygen for either 6 or 2 h, and control groups received 60% oxygen for 6 or 2 h at identical flow rates in identical anesthetizing chambers. […] The high concentration of sevoflurane anesthesia was used to illustrate the difference of sevoflurane-induced neurotoxicity between neonatal naïve and AD transgenic mice. […] Anesthetic and oxygen concentrations were measured continuously (Datex, Tewksbury, Mass.), and the temperature of the anesthetizing chamber was controlled to maintain the rectal temperature of the mice at 37°±0.5° C.

[10] = test system: apoptosis in the developing rat brain; conditions: intraventricular injection, Wei and Xie, 6 Curr. Alzheimer Res. 30 (2009); cited from earlier work

SMILES: NCCOB(c1ccccc1)c1ccccc1 [2-APB, 2-aminoethoxydiphenyl borate]
- sevoflurane-induced caspase-3 activation, percentage of control (100%) ([1]; 5 mg/kg 2-APB i.p. 10 min before 3% sevoflurane for 6 h, neonatal naïve mice, P=0.001): 149%
- sevoflurane-induced caspase-3 activation, percentage of control (100%) ([1]; 10 mg/kg 2-APB i.p. 10 min before 3% sevoflurane for 6 h, neonatal naïve mice, P=0.005): 115%
- sevoflurane-induced increase in Aβ levels, percentage of control [2]: 157%

SMILES: CC(C)c1cccc(C(C)C)c1O [propofol, 2,6-diisopropylphenol]
- effect on isoflurane-induced Aβ40 (oligomerization) ([3]; 100 μM propofol for one hour prior to 2% isoflurane, H4-APP cells, FIG. 14B): attenuated
- effect on isoflurane-induced Aβ42 (oligomerization) ([3]; 100 μM propofol for one hour prior to 2% isoflurane, H4-APP cells, FIG. 14C): attenuated
- Aβ oligomerization by propofol alone ([3]; propofol alone, no isoflurane): did not induce
- effect on isoflurane-induced caspase-3 activation [4]: did not attenuate
- effect on isoflurane-induced caspase-3 activation [5]: did not attenuate
- effect on isoflurane-induced caspase-3 activation ([6]; 100 μM propofol for one hour prior to 2% isoflurane for six hours, H4-APP cells, FIG. 10): attenuated isoflurane-induced caspase-3 activation
- caspase-3 activation by propofol alone ([6]; propofol alone, no isoflurane): did not induce

SMILES: FCOC(C(F)(F)F)C(F)(F)F [sevoflurane]
- decrease in the ratio of APP-C83 to APP-FL compared with control [7]: 45%
- decrease in the ratio of APP-C99 to APP-FL compared with control [7]: 33%
- caspase-3 activation, percentage of control (100%) ([1]; 2.1% sevoflurane for 6 h, neonatal AD transgenic mice, FIG. 2D, P=0.045): 178%
- caspase-3 activation, percentage of control (100%) ([1]; 2.1% sevoflurane for 6 h, neonatal naïve mice, FIG. 2B, P=0.002): 183%
- caspase-3 activation, percentage of control (100%) ([1]; 3% sevoflurane for 2 h, neonatal naïve mice, FIG. 3B, P=0.074 (did not increase)): 128%
- caspase-3 activation, fold of control (1-fold) ([1]; neonatal AD transgenic mice): 2.45 fold and 2.13 fold
- caspase-3 activation, fold of control (1-fold) ([1]; neonatal naïve mice, P=0.003): 1.48 fold
- caspase-3 activation, percentage of control (100%) ([1]; 3% sevoflurane for 6 h alone, neonatal naïve mice, 2-APB interaction study, FIG. 7B, P=0.002): 356%
- increase in caspase-3 cleavage (activation), ratio of cleaved caspase-3 fragment to FL-caspase-3, compared with control ([1]; 3% sevoflurane plus 60% oxygen for 6 h, 6-day-old neonatal naïve mice, FIG. 1B, P=0.009): 242%
- TUNEL-positive cells (apoptosis), fold of control (1-fold) ([8]; neonatal AD transgenic mice): 2.13 fold and 2.45 fold
- TUNEL-positive cells (apoptosis), fold of control (1-fold) ([8]; neonatal naïve mice, P=0.001): 2.08 fold
- death of the mice ([9]; 2.1% sevoflurane): did not cause the death of the mice
- mortality rate of the mice ([9]; 3% sevoflurane plus 60% oxygen for 6 h): 10-15%

SMILES: C1CCC[C@H]2CCCN3CC[C@@H](CCCCCC[C@@H]4CCCN5CC[C@@H](CC1)O[C@@H]45)O[C@@H]23 [xestospongin C]
- effect on isoflurane-induced apoptosis [10]: inhibits isoflurane-induced apoptosis

From patent publication US20120316247A1, “PREVENTION AND TREATMENT OF POST-OPERATIVE COGNITIVE DYSFUNCTION (POCD)” (priority 2009, published 2012)
